Molecules are shown by their SMILES.

One test deals with Sodium-dependent noradrenaline transporter (Homo sapiens, UniProt P23975). Nature of the test: DRUGMATRIX: Norepinephrine Transporter radioligand binding (ligand: [125I] RTI-55). The format is cell membranes, MDCK, Membrane. The conditions noted are these: mdck; Not Active = under 50% inhibition at 10 µM.
Chain of Sodium-dependent noradrenaline transporter (P23975 whole entry): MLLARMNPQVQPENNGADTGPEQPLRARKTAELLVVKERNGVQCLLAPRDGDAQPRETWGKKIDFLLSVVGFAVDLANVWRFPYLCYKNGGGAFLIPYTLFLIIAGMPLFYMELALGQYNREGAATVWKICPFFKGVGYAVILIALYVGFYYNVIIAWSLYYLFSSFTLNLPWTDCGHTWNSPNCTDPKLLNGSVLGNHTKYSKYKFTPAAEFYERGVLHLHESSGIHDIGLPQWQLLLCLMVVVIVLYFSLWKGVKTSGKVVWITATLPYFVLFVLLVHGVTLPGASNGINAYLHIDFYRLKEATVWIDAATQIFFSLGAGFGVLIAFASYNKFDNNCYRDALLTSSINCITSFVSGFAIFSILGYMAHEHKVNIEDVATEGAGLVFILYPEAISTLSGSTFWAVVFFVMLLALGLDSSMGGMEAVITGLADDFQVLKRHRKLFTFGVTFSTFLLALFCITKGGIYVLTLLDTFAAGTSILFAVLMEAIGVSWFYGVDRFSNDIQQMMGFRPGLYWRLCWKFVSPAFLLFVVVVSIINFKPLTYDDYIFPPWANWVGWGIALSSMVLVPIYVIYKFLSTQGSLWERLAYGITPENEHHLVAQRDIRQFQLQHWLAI
In the case of `COc1ccc2c3c1O[C@H]1C[C@@H](O)C=C[C@@]31CCN(C)C2` [GALANTAMINE], the IC50 (commonly the concentration at which inhibition is half-maximal) is “Not Active”.
Take `Nc1ccn([C@@H]2O[C@H](CO)[C@@H](O)C2(F)F)c(=O)n1` [GEMCITABINE]: the IC50 result was “Not Active”.
In the case of `CC(C)=CCC/C(C)=C/CO` [GERANIOL], the IC50 entry is “Not Active”.
`Oc1c(Cl)cc(Cl)c(Cl)c1Cc1c(O)c(Cl)cc(Cl)c1Cl` [HEXACHLOROPHENE]: the IC50 result was “Not Active”.
As to `NNc1nncc2ccccc12` [HYDRALAZINE], the IC50 entry is reported as “Not Active”.

The next test concerns the target cGMP-specific 3',5'-cyclic phosphodiesterase (Homo sapiens, UniProt O76074). Nature of the test: DRUGMATRIX: Phosphodiesterase PDE5 enzyme inhibition (substrate: [3H]cGMP + cGMP). It counts as tissue-based, Platelet. The conditions noted are these: platelet; Not Active = under 50% inhibition at 10 µM.
`COc1ccc2c3c1O[C@H]1C[C@@H](O)C=C[C@@]31CCN(C)C2` [GALANTAMINE]: the IC50 entry was “Not Active”.
On to `Nc1ccn([C@@H]2O[C@H](CO)[C@@H](O)C2(F)F)c(=O)n1` [GEMCITABINE], for which the IC50 result was “Not Active”.
On the same count and under the same terms, as for `CC(C)=CCC/C(C)=C/CO` [GERANIOL], the entry is “Not Active”; as for `Oc1c(Cl)cc(Cl)c(Cl)c1Cc1c(O)c(Cl)cc(Cl)c1Cl` [HEXACHLOROPHENE], “Not Active”.
For `NNc1nncc2ccccc12` [HYDRALAZINE], the IC50 result is “Not Active”.

Another test concerns the target T1, Polyunsaturated fatty acid lipoxygenase ALOX15 (Oryctolagus cuniculus, UniProt P12530).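 Also: inhibition of 15-lipoxygenase enzyme activity measured with linoleic acid as the substrate; in other assays of this panel Not Active means under 50% inhibition at 10 µM.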
T1 sequence (P12530 whole entry): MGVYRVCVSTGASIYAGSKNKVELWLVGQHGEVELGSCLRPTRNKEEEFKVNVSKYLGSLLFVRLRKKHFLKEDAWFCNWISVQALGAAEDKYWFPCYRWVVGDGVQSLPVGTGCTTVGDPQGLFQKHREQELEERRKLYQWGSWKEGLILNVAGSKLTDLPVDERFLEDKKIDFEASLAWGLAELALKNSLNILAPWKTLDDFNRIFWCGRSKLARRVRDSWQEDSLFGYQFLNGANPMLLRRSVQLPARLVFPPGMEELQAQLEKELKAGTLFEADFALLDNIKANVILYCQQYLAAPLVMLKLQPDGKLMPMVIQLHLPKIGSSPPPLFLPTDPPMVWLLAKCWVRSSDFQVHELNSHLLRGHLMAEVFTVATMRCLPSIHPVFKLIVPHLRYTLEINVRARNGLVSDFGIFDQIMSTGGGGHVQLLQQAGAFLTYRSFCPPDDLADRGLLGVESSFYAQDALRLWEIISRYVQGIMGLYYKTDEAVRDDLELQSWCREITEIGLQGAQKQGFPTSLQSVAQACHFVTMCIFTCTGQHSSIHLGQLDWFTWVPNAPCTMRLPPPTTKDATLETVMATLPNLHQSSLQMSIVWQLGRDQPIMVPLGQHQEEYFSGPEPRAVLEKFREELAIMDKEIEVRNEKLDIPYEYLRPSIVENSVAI
Nature of the test: biochemical. Conditions: read-out: IC50. It counts as tissue-based, Reticulocytes.
In the case of `NNc1nncc2ccccc12` [HYDRALAZINE], the IC50 was determined as 3.65 µM.

The same test, now with this note: reticulocytes.
Regarding `COc1ccc2c3c1O[C@H]1C[C@@H](O)C=C[C@@]31CCN(C)C2` [GALANTAMINE], the IC50 result was “Not Active”.
`Nc1ccn([C@@H]2O[C@H](CO)[C@@H](O)C2(F)F)c(=O)n1` [GEMCITABINE]: the IC50 result is on record as “Not Active”.
Same read-out and setting: in the case of `CC(C)=CCC/C(C)=C/CO` [GERANIOL] it was “Not Active”; in that of `Oc1c(Cl)cc(Cl)c(Cl)c1Cc1c(O)c(Cl)cc(Cl)c1Cl` [HEXACHLOROPHENE], “Not Active”.

The target in another test is Vasopressin V1a receptor (Homo sapiens, UniProt P37288). Also: in other assays of this panel Not Active means under 50% inhibition at 10 µM.
Chain of Vasopressin V1a receptor (P37288 whole entry): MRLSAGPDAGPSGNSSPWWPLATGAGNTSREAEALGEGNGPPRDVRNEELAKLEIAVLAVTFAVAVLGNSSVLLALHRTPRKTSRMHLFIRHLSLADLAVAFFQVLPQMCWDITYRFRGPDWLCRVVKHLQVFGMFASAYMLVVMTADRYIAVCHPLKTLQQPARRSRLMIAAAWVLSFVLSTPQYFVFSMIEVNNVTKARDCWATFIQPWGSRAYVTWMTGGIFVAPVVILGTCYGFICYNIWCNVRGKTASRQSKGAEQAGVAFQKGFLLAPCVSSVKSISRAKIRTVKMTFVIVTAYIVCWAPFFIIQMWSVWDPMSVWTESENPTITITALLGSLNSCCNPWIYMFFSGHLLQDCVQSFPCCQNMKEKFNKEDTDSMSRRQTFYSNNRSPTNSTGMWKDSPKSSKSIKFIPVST
Test: not given
It counts as cell membranes, Membrane. The conditions noted are these: hek293.
Regarding `COc1ccc2c3c1O[C@H]1C[C@@H](O)C=C[C@@]31CCN(C)C2` [GALANTAMINE], the 50% inhibitory concentration (IC50) result is listed as “Not Active”.
Same read-out and setting: in the case of `Nc1ccn([C@@H]2O[C@H](CO)[C@@H](O)C2(F)F)c(=O)n1` [GEMCITABINE] it was “Not Active”.
With `CC(C)=CCC/C(C)=C/CO` [GERANIOL], the IC50 result is “Not Active”.
For `Oc1c(Cl)cc(Cl)c(Cl)c1Cc1c(O)c(Cl)cc(Cl)c1Cl` [HEXACHLOROPHENE], the 50% inhibitory concentration (IC50) entry was “Not Active”.
On to `NNc1nncc2ccccc12` [HYDRALAZINE], for which the IC50 result is “Not Active”.

Another test concerns the target T2, Cathepsin G (Homo sapiens, UniProt P08311).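 Also: inhibition of Cathepsin G enzyme activity, tested on an AMC-conjugated peptide substrate; in other assays of this panel Not Active means under 50% inhibition at 10 µM.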
T2 sequence (P08311 whole entry): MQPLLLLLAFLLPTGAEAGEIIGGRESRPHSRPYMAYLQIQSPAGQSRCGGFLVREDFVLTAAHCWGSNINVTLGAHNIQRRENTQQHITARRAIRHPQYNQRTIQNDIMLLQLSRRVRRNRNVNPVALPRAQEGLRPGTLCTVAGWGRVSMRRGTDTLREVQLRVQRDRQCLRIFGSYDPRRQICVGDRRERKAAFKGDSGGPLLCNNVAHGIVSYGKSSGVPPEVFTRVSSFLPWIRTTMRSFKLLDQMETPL
Test: not given
The format is tissue-based. The conditions noted are these: neutrophil.
`COc1ccc2c3c1O[C@H]1C[C@@H](O)C=C[C@@]31CCN(C)C2` [GALANTAMINE]: the 50% inhibitory concentration (IC50) result is listed as “Not Active”.
The same measure, in the same setting: as for `Nc1ccn([C@@H]2O[C@H](CO)[C@@H](O)C2(F)F)c(=O)n1` [GEMCITABINE], the entry is “Not Active”; as for `CC(C)=CCC/C(C)=C/CO` [GERANIOL], “Not Active”.
As to `Oc1c(Cl)cc(Cl)c(Cl)c1Cc1c(O)c(Cl)cc(Cl)c1Cl` [HEXACHLOROPHENE], the IC50 entry is on record as “Not Active”.
On to `NNc1nncc2ccccc12` [HYDRALAZINE], for which the IC50 entry is reported as “Not Active”.

The target in another test is Mu-type opioid receptor (Homo sapiens, UniProt P35372). Description: DRUGMATRIX: Opiate mu (OP3, MOP) radioligand binding (ligand: [3H] Diprenorphine). Conditions: cho-k1; Not Active = under 50% inhibition at 10 µM. It counts as cell membranes, CHO-K1, Membrane.
Chain of Mu-type opioid receptor (P35372 whole entry): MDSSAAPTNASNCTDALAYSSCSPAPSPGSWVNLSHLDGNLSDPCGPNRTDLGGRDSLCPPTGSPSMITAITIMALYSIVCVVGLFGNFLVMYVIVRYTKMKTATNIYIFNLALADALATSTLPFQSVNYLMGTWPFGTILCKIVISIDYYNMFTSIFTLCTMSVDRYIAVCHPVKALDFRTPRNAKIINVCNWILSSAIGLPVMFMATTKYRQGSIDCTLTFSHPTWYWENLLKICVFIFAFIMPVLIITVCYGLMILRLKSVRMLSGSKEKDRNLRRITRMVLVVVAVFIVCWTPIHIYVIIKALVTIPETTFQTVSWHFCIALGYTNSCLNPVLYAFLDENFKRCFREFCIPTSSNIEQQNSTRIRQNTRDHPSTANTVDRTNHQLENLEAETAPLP
Consider `COc1ccc2c3c1O[C@H]1C[C@@H](O)C=C[C@@]31CCN(C)C2` [GALANTAMINE], for which the IC50 result is on record as “Not Active”.
Same read-out and setting: in the case of `Nc1ccn([C@@H]2O[C@H](CO)[C@@H](O)C2(F)F)c(=O)n1` [GEMCITABINE] it was “Not Active”; in that of `CC(C)=CCC/C(C)=C/CO` [GERANIOL], “Not Active”.
`Oc1c(Cl)cc(Cl)c(Cl)c1Cc1c(O)c(Cl)cc(Cl)c1Cl` [HEXACHLOROPHENE]: the IC50 result is recorded as “Not Active”.
On to `NNc1nncc2ccccc12` [HYDRALAZINE], for which the IC50 entry is “Not Active”.

For another test, the target named is T3, Alpha-2C adrenergic receptor (Homo sapiens, UniProt P18825).
T3 sequence (P18825 whole entry): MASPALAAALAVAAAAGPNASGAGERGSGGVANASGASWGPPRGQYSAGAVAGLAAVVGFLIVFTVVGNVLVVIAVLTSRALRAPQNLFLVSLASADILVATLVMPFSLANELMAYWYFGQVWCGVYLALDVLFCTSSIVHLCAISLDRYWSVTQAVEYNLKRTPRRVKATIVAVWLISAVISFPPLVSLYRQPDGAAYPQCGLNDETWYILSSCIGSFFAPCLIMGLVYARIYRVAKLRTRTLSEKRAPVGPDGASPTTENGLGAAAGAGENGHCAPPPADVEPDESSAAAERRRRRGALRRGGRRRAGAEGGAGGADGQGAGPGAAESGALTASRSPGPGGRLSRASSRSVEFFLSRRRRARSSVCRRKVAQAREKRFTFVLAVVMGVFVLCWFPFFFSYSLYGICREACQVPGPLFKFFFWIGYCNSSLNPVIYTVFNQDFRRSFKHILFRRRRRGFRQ
Nature of the test: DRUGMATRIX: Adrenergic Alpha-2C radioligand binding (ligand: [3H] MK-912). The format is cell membranes, Sf9, Membrane. The conditions noted are these: read-out: IC50.
With `Oc1c(Cl)cc(Cl)c(Cl)c1Cc1c(O)c(Cl)cc(Cl)c1Cl` [HEXACHLOROPHENE], the IC50 amounted to 6.98 µM.

Still in this test, the particulars now being: read-out: Ki.
Turning to `Oc1c(Cl)cc(Cl)c(Cl)c1Cc1c(O)c(Cl)cc(Cl)c1Cl` [HEXACHLOROPHENE], the Ki – broadly, the dissociation constant of the complex between target and ligand, obtained from inhibition or displacement – amounted to 1.01 µM.

Staying with this test, now noted: sf9.
Regarding `COc1ccc2c3c1O[C@H]1C[C@@H](O)C=C[C@@]31CCN(C)C2` [GALANTAMINE], the 50% inhibitory concentration (IC50) entry is on record as “Not Active”.
The same measure, in the same setting: as for `Nc1ccn([C@@H]2O[C@H](CO)[C@@H](O)C2(F)F)c(=O)n1` [GEMCITABINE], the entry is “Not Active”; as for `CC(C)=CCC/C(C)=C/CO` [GERANIOL], “Not Active”; as for `NNc1nncc2ccccc12` [HYDRALAZINE], “Not Active”.

The record behind these values is ChEMBL document CHEMBL1909046, “DrugMatrix in vitro pharmacology data”.
